Test results published in patent US9345766B2, “Combination therapies comprising anti-ERBB3 agents” (Merrimack Pharmaceuticals, Inc., priority 2012, dated 2016).

Tested on: phospho-ErbB3 (pErbB3)
Type: cell-based
Conditions: incubation 15 minutes to 24 hours
Description: Cell lysates are probed for phospho-ErbB3 (pErbB3), and phospho-AKT (pAKT) by ELISA as described previously (Schoeberl et al, 2009) Inhibitor IC50 values are calculated by fitting dose-response data to a 4-parameter sigmoidal curve (GraphPad Prism®, GraphPad Software, Inc., La Jolla, Calif.).
Model-generated dose-response curves overlay the experimental data (FIG. 7a). […] Untreated and heregulin-stimulated cells were probed for pErbB3 and pAKT and the IC50 was calculated (FIG. 7b).
Amounts of pAKT and pErbB3 were measured by ELISA essentially as described.

## MM-111: bispecific anti-ErbB2/anti-ErbB3 antibody, scFv HSA conjugate, amino acid sequence SEQ ID NO:1
  ability to inhibit heregulin-induced ErbB3 activation relative to lapatinib: superior to lapatinib by greater than an order of magnitude
